# According to PubChem BioAssay AID2060895 (Molecular Pharmacology Branch, DTP, NCI, 2025):
# Test system: PDC 899932-113-R3-J6 complex spheroid viability
# Experiment: Anticancer human tumor 899932-113-R3-J6-PDC patient-derived melanoma cell line growth inhibition [RAS]
# Conditions: for IC50: curve of first compound; for viability, T/C: stronger effect = lower value
# In short: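 Agents were tested in combination matrices in half-log decrements from a top concentration at or near clinical Cmax (10 microM if undetermined). Targets were multi-cell spheroids of tumour lines plus HUVEC and MSC stromal cells.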
# [1] = second compound 0.0316 µM, first compound 0.0316 µM
# [2] = second compound 0.0316 µM, first compound 0.1 µM
# [3] = second compound 0.0316 µM, first compound 0.316 µM
# [4] = second compound 0.0316 µM, first compound 1 µM
# [5] = second compound 0.0316 µM, first compound 3.16 µM
# [6] = second compound 0.0316 µM, first compound 10 µM
# [7] = second compound 0.1 µM, first compound 0.0316 µM
# [8] = second compound 0.1 µM, first compound 0.1 µM
# [9] = second compound 0.1 µM, first compound 0.316 µM
# [10] = second compound 0.1 µM, first compound 1 µM
# [11] = second compound 0.1 µM, first compound 3.16 µM
# [12] = second compound 0.1 µM, first compound 10 µM
# [13] = second compound 0.316 µM, first compound 0.0316 µM
# [14] = second compound 0.316 µM, first compound 0.1 µM
# [15] = second compound 0.316 µM, first compound 0.316 µM
# [16] = second compound 0.316 µM, first compound 1 µM
# [17] = second compound 0.316 µM, first compound 3.16 µM
# [18] = second compound 0.316 µM, first compound 10 µM
# [19] = second compound 1 µM, first compound 0.0316 µM
# [20] = second compound 1 µM, first compound 0.1 µM
# [21] = second compound 1 µM, first compound 0.316 µM
# [22] = second compound 1 µM, first compound 1 µM
# [23] = second compound 1 µM, first compound 3.16 µM
# [24] = second compound 1 µM, first compound 10 µM
# 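Wherever viability, T/C is given: spheroids exposed to agents for seven days before readout; 100% = DMSO vehicle control wells.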
compound,measurement,setting,value
Cc1nc(N2CCC3(CC2)COC(C)C3N)c(CO)nc1Sc1ccnc(N)c1Cl (stereo unspecified) + C=CC(=O)N1CCN(c2nc(OCC3CCCN3C)nc3c(F)c(-c4nc(N)cc(C)c4C(F)(F)F)c(Cl)cc23)C(C)C1,IC50,second compound 0.00316 µM,> 10 µM
same,IC50,second compound 0.01 µM,> 10 µM
same,IC50,second compound 0.0316 µM,> 10 µM
same,IC50,second compound 0.1 µM,> 10 µM
same,IC50,second compound 0.316 µM,> 10 µM
same,IC50,second compound 1 µM,> 10 µM
same,"viability, T/C","second compound 0.00316 µM, first compound 0.0316 µM",110%
same,"viability, T/C","second compound 0.00316 µM, first compound 0.1 µM",96.4%
same,"viability, T/C","second compound 0.00316 µM, first compound 0.316 µM",102%
same,"viability, T/C","second compound 0.00316 µM, first compound 1 µM",108%
same,"viability, T/C","second compound 0.00316 µM, first compound 3.16 µM",115%
same,"viability, T/C","second compound 0.00316 µM, first compound 10 µM",127%
same,"viability, T/C","second compound 0.01 µM, first compound 0.0316 µM",106%
same,"viability, T/C","second compound 0.01 µM, first compound 0.1 µM",109%
same,"viability, T/C","second compound 0.01 µM, first compound 0.316 µM",113%
same,"viability, T/C","second compound 0.01 µM, first compound 1 µM",107%
same,"viability, T/C","second compound 0.01 µM, first compound 3.16 µM",119%
same,"viability, T/C","second compound 0.01 µM, first compound 10 µM",118%
same,"viability, T/C",[1],99.7%
same,"viability, T/C",[2],98.5%
same,"viability, T/C",[3],117%
same,"viability, T/C",[4],108%
same,"viability, T/C",[5],120%
same,"viability, T/C",[6],126%
same,"viability, T/C",[7],99.5%
same,"viability, T/C",[8],108%
same,"viability, T/C",[9],107%
same,"viability, T/C",[10],113%
same,"viability, T/C",[11],120%
same,"viability, T/C",[12],124%
same,"viability, T/C",[13],126%
same,"viability, T/C",[14],111%
same,"viability, T/C",[15],108%
same,"viability, T/C",[16],106%
same,"viability, T/C",[17],108%
same,"viability, T/C",[18],110%
same,"viability, T/C",[19],113%
same,"viability, T/C",[20],106%
same,"viability, T/C",[21],114%
same,"viability, T/C",[22],116%
same,"viability, T/C",[23],110%
same,"viability, T/C",[24],114%
Cc1nc(N2CCC3(CC2)COC(C)C3N)c(CO)nc1Sc1ccnc(N)c1Cl (stereo unspecified) + CCn1c(-c2cc(N3CCN(C)CC3)cnc2C(C)OC)c2c3cc(ccc31)-c1csc(n1)CC(NC(=O)C1CC1C)C(=O)N1CCCC(N1)C(=O)OCC(C)(C)C2,IC50,second compound 0.000949 µM,> 10 µM
same,IC50,second compound 0.003 µM,< 0.0316 µM
same,IC50,second compound 0.00949 µM,< 0.0316 µM
same,IC50,second compound 0.03 µM,< 0.0316 µM
same,IC50,second compound 0.0949 µM,< 0.0316 µM
same,IC50,second compound 0.3 µM,< 0.0316 µM
same,"viability, T/C","second compound 0.000949 µM, first compound 0.0316 µM",70.1%
same,"viability, T/C","second compound 0.000949 µM, first compound 0.1 µM",71.2%
same,"viability, T/C","second compound 0.000949 µM, first compound 0.316 µM",76.8%
same,"viability, T/C","second compound 0.000949 µM, first compound 1 µM",78.6%
same,"viability, T/C","second compound 0.000949 µM, first compound 3.16 µM",80%
same,"viability, T/C","second compound 0.000949 µM, first compound 10 µM",83%
same,"viability, T/C","second compound 0.003 µM, first compound 0.0316 µM",29.8%
same,"viability, T/C","second compound 0.003 µM, first compound 0.1 µM",29.9%
same,"viability, T/C","second compound 0.003 µM, first compound 0.316 µM",30.1%
same,"viability, T/C","second compound 0.003 µM, first compound 1 µM",31.8%
same,"viability, T/C","second compound 0.003 µM, first compound 3.16 µM",38.8%
same,"viability, T/C","second compound 0.003 µM, first compound 10 µM",35.3%
same,"viability, T/C","second compound 0.00949 µM, first compound 0.0316 µM",3.52%
same,"viability, T/C","second compound 0.00949 µM, first compound 0.1 µM",3.03%
same,"viability, T/C","second compound 0.00949 µM, first compound 0.316 µM",2.45%
same,"viability, T/C","second compound 0.00949 µM, first compound 1 µM",2.29%
same,"viability, T/C","second compound 0.00949 µM, first compound 3.16 µM",2.72%
same,"viability, T/C","second compound 0.00949 µM, first compound 10 µM",2.76%
same,"viability, T/C","second compound 0.03 µM, first compound 0.0316 µM",2.9%
same,"viability, T/C","second compound 0.03 µM, first compound 0.1 µM",2.41%
same,"viability, T/C","second compound 0.03 µM, first compound 0.316 µM",2.2%
same,"viability, T/C","second compound 0.03 µM, first compound 1 µM",2.42%
same,"viability, T/C","second compound 0.03 µM, first compound 3.16 µM",1.4%
same,"viability, T/C","second compound 0.03 µM, first compound 10 µM",1.8%
same,"viability, T/C","second compound 0.0949 µM, first compound 0.0316 µM",2.84%
same,"viability, T/C","second compound 0.0949 µM, first compound 0.1 µM",2.97%
same,"viability, T/C","second compound 0.0949 µM, first compound 0.316 µM",1.92%
same,"viability, T/C","second compound 0.0949 µM, first compound 1 µM",2.03%
same,"viability, T/C","second compound 0.0949 µM, first compound 3.16 µM",1.67%
same,"viability, T/C","second compound 0.0949 µM, first compound 10 µM",0.79%
same,"viability, T/C","second compound 0.3 µM, first compound 0.0316 µM",2.22%
same,"viability, T/C","second compound 0.3 µM, first compound 0.1 µM",2.77%
same,"viability, T/C","second compound 0.3 µM, first compound 0.316 µM",1.95%
same,"viability, T/C","second compound 0.3 µM, first compound 1 µM",2.27%
same,"viability, T/C","second compound 0.3 µM, first compound 3.16 µM",1.64%
same,"viability, T/C","second compound 0.3 µM, first compound 10 µM",1.71%
Cc1nc(N2CCC3(CC2)COC(C)C3N)c(CO)nc1Sc1ccnc(N)c1Cl (stereo unspecified) + C#Cc1c(F)ccc2cc(O)cc(-c3ncc4c(N5CC6CCC(C5)N6)nc(OCC56CCCN5CC(F)C6)nc4c3F)c12,IC50,second compound 0.0316 µM,> 10 µM
same,IC50,second compound 0.1 µM,> 10 µM
same,IC50,second compound 0.316 µM,> 10 µM
same,IC50,second compound 1 µM,> 10 µM
same,IC50,second compound 3.16 µM,> 10 µM
same,IC50,second compound 10 µM,> 10 µM
same,"viability, T/C",[1],98.1%
same,"viability, T/C",[2],104%
same,"viability, T/C",[3],108%
same,"viability, T/C",[4],104%
same,"viability, T/C",[5],118%
same,"viability, T/C",[6],119%
same,"viability, T/C",[7],99.3%
same,"viability, T/C",[8],99.1%
same,"viability, T/C",[9],107%
same,"viability, T/C",[10],103%
same,"viability, T/C",[11],114%
same,"viability, T/C",[12],123%
same,"viability, T/C",[13],111%
same,"viability, T/C",[14],101%
same,"viability, T/C",[15],96.3%
same,"viability, T/C",[16],118%
same,"viability, T/C",[17],117%
same,"viability, T/C",[18],119%
same,"viability, T/C",[19],106%
same,"viability, T/C",[20],109%
same,"viability, T/C",[21],108%
same,"viability, T/C",[22],113%
same,"viability, T/C",[23],116%
same,"viability, T/C",[24],122%
same,"viability, T/C","second compound 3.16 µM, first compound 0.0316 µM",126%
same,"viability, T/C","second compound 3.16 µM, first compound 0.1 µM",110%
same,"viability, T/C","second compound 3.16 µM, first compound 0.316 µM",108%
same,"viability, T/C","second compound 3.16 µM, first compound 1 µM",112%
same,"viability, T/C","second compound 3.16 µM, first compound 3.16 µM",122%
same,"viability, T/C","second compound 3.16 µM, first compound 10 µM",121%
same,"viability, T/C","second compound 10 µM, first compound 0.0316 µM",106%
same,"viability, T/C","second compound 10 µM, first compound 0.1 µM",111%
same,"viability, T/C","second compound 10 µM, first compound 0.316 µM",112%
same,"viability, T/C","second compound 10 µM, first compound 1 µM",123%
same,"viability, T/C","second compound 10 µM, first compound 3.16 µM",113%
same,"viability, T/C","second compound 10 µM, first compound 10 µM",123%
